Results on 1 compound are retold here after patent US20050209104A1, “Dinoflagellate karlotoxins, methods of isolation and uses thereof” (priority 2002, published 2005).

SMILES strings stand for the structures. Entries after “also recorded” stand apart in the source; their conditions may differ.

Data set [1] concerns rat ventricular cardiac myocytes. Description: Ion permeation measurement, Ca^2+ with fura-2 (cardiac myocyte). In kind it is cell-based. The conditions noted are these: 60 seconds after application of 0.25 μg/ml.
Data set [2] has as its system rat embryonic fibroblast (REF 52) cells. Description: Ion permeation measurement, Ca^2+ flux with fura-2 (fibroblasts). In kind it is cell-based. As for the experimental part: The following cell types were tested for toxicity due to KmTx 2; rat embryonic fibroblast, rat intestional epithelial, and isolated rabbit primary sensory neurons. Cells were cultured on No. 1 glass coverslips and loaded with fluorescent indicator (fura-2) and were examined on an inverted epifluorescence microscope (model Diaphot; 40×CF Fluor objective, N.A. 1.30; Nikon Corp.) coupled to a spectrofluorometer (model CM1T10I, SPEX Industries) operating in the microfluorometry mode. Cells were bathed in 4 ml of Dulbecco's modified Eagle's medium (DMEM) buffered with HEPES (pH 7.4). KmTx 2 (stock solution in DMSO) was directly bath-applied with gentle convective mixing. Fura-2 was alternately excited at 340 and 380 nm. Fluorescence emission was passed through a 510-nm bandpass filter before photometric quantitation. DATAMAX software (SPEX Industries) was used for data acquisition and instrument control. Origin software (OriginLab Corp.) was used for data reduction and analysis

For data set [3], the system named is rainbow trout erythrocytes. Description: Osmotic protection assay. Type of data set: cell-based. The conditions noted are these: 30 mM osmolyte, even at 1 μg/ml KmTx 2. As for the experimental part: The following osmolytes (all purchased from Sigma-Aldrich Co., St Louis, Mo.) were prepared as 30 mM solutions using the Tris buFFer +CaCl2: sucrose (MW 342.3), polyethylene glycol (MW 400), polyethylene glycol (MW 600), maltohexaose (MW 990.0), polyethylene glycol (MW 8,000), dextran (MW 10,000). Osmolarity of each solution was measured using a Vapro 5520 vapor pressure osmometer (Wescor Inc., Logan Utah). […] The osmolarities of PEG 8,000 and 10,000 MW dextran were approximately double this amount (ca. 640 mOsm).
Assays were performed by preparing trout erythrocyte suspensions and toxin dilutions (0, 0.25 0.5, and 1 μg/ml) in the appropriate osmolyte solution and performing the hemolysis assay as described in supplemental materials.

The subject of data set [4] is K. micrum (CCMP 2282). The data set can be described thus: Exposure of Karlodinium micrum to KmTx 2. In kind it is cell-based. As for the experimental part: Oxyrrhis marina (1.7×10^4 cells/mil) and K. micrum (CCMP 2282) (3.5×10^4 cells/ml) were exposed, in triplicate, to 0, 0.1, 0.5, and 1 μg/ml KmTx 2 in six well non-tissue culture treated polystyrene plates (Becton Dickinson Labware, Lincoln Park N.J.). The O. marina culture was obtained through single cell isolation from a Chesapeake Bay water sample and was maintained in 15 psu artificial sea water (Instant Ocean Brand) using Rhodomonas sp. (CCMP 767) as a food source. O. marina was starved for 24 hours prior to exposures to reduce the number of food organisms. K. micrum (CCMP 2282) was maintained in 12 psu artificial sea water (Instant Ocean Brand) with f/2 nutrient mixture plus 1% soil extract as described in Deeds et al. (2002). Cell densities were measured at 1 and 24 hours using a Coulter Multisizer II particle counter by enumerating the 7-20 μm and the […] size fractions, respectively, for K. micrum and O. marina using a Coulter Accucomp software package (Coulter Electronics Limited, Miami Fla.). […]
Hemolytic activity remaining in solution was measured at 1 hour by mixing 100 μl of each treatment with an equal volume of diluted rainbow trout RBC suspension as described above in Example 3.

For data set [5], the system named is rainbow trout erythrocytes. On the procedure:
The filtrate from water samples collected on Feb. […] Environmental water samples were allowed to thaw to room temperature and passed through a Sep-Pak Plus tC18 disposable cartridge (Waters Corp., Milford Mass.), attached to a vacuum manifold. The column was pre-equilibrated with methanol (20 ml) followed by H2O (20 ml). The cartridges were eluted with the following concentrations of MeOH/H2O: 100% H2O, 40%, 60%, 80%, and 100% MeOH (12 ml ea^−1). An aliquot of each elution was diluted, using Tris buffer +CaCl2, to give final dilutions ranging from 6 to 60% of original concentrations. […] The occurrence of hemolytic activity was determined by the absorbance of released hemoglobin, measured at 540 nm. Saponin (10 μg) served as a positive hemolysin control. Treatments were run in quadruplicate.
A hemolytic assay based on the lysis of fish erythrocytes was utilized to screen for bioactive materials. Cultures and culture fractions that were positive in the hemolytic assay were tested further using assays for ichthyotoxicity and cytotoxicity.
Blood was extracted from the caudal vein of rainbow trout (Oncorhynchus mykis) provided by the Center of Marine Biotechnology's Aquaculture Research Center. Needles were heparin (Sigma Chemical Co., St. Louis Mo.) treated and 10 units ml^−1 of additional heparin was added to whole blood samples to prevent clotting. […] Buffer pH was adjusted to 7.4 at 10° C. with 1N HCl, then filter sterilized (0.22 μm). […] Suspensions were stored at 4° C. for no longer than 10 days.
Hemolytic assays were performed by diluting test material in Tris buffer +CaCl2 (100 μl total) and adding this to a 5% erythrocyte suspension (100 μl). […] Assays were incubated on an orbital shaker (80-100 rpm) at 20° C. for 1 hour. Plates were then centrifuged at 2500 g for 5 min. and the supernatant (100 μl) was transferred to another flat bottom 96 well polystyrene plate, where the absorbance of released hemoglobin was read at 540 nm. Saponin (10 μg) (from Quillaja bark; Sigma Chemical Co., St. Louis Mo.) was used as a positive hemolysin control All treatments were run in quadruplicate.
LC50values and ranges were determined by Probit analysis (SPSS Base 10.0, SPSS Inc., Chicago Ill.).
Blood was extracted from the caudal vein of rainbow trout (Oncorhynchus mykis). […] Buffer pH was adjusted to 7.4 at 10° C. with 1N HCl, then filter sterilized (0.22 um). […] Blood suspensions were stored at 4° C. for no longer than 10 days.
Hemolysis assays were performed by diluting test material in Tris buFFer +CaCl2 (100 ul) and adding this to 100 ul of a 5% erythrocyte suspension for a total assay volume of 200 ul. […] Plates were incubated on an orbital shaker (80-100 rpm) at 20° C. for 1 hour. Plates were then centrifuged at 2000 g for 5 min. and the supernatant (100 ul) was transferred to a new flat bottom 96 well polystyrene plate, where the absorbance of released hemoglobin was read at 540 nm. Saponin (from Quillaja bark; Sigma Chemical Co., St. Louis Mo.) was used as a positive hemolysin control. Percent hemolysis (0-100%) was calculated from comparison to un-treated controls and samples treated with 10 ug saponin. All treatments were run in quadruplicate.
Hemolytic LC50 values were calculated from a dilution series of KmTx 2 and amphotericin B. LC50 values and ranges were determined by Probit analysis using a SPSS Base 10.0 statistical software package (SPSS Inc., Chicago, Ill.).

For `C=C(CC[C@H](O)[C@H]1O[C@H](C[C@@H](O)[C@H](O)[C@H](C)CCC[C@@H](O)[C@H](O)[C@H](O)[C@@H](C)CC[C@@H](O)[C@H](O)[C@H](C)C[C@@H](O)CCC[C@@H](O)CCC[C@@H](O)/C=C/C[C@@H](O)CO)[C@@H](O)[C@@H](O)[C@@H]1O)[C@H](O)[C@H](O)[C@@H]1C[C@H](O)[C@H](O)[C@@H]([C@H](O)[C@@H](O)/C=C/CCCCCCCC/C=C/C=C/Cl)O1` [KmTx 2], in data set [1], the “[Ca^2+]i in cardiac myocyte” value was “dramatically elevated”. Moreover, the “intracellular free Ca^2+ concentration ([Ca^2+]i)” value in data set [2] (0.25 μg/ml) was “marked increase in intracellular free Ca^2+ concentration; also recorded: rapid increase in cytosolic Ca^2+ levels followed by slight recovery”; in data set [2] (1 μg/ml), “sharp and irreversible rise in [Ca^2+]i; also recorded: rapid rise in cytosoloc Ca^2+ levels with no recovery”. The “molecular weight of inert osmolyte giving complete prevention of lysis” value in data set [3] is reported as > 8,000 Da. Moreover, the “K. micrum culture growth” value in data set [4] (1 μg/ml, after 24 hours) is listed as “continued to divide”. Besides, the “effect on cultures of K. micrum” value in data set [4] (0.1, 0.5, and 1 μg/ml) is recorded as “no effect”. In data set [5] (probit analysis of dilution series), the “hemolytic LC50” value came out at 0.368 mg/L. Moreover, the “hemolytic activity compared to amphotericin B” value in data set [5] (rainbow trout erythrocytes) is recorded as “ten fold higher”.
